The values that follow come from ChEMBL document CHEMBL3994598, “Silychristin: Skeletal Alterations and Biological Activities” (J Nat Prod, 2016).

SMILES strings stand for the structures.

The subject of one data set is TERT-RPE1. The experiment in a line: Cytotoxicity against human RPE1 cells at 0.0003 to 100 uM after 48 hrs by ATPlite assay. In kind it is cell-based. The conditions noted are these: tert-rpe1, 48 h. For orientation: In ATP-based viability assays light output follows the ATP content of the culture.
The next data set relates to CAL-51. The experiment in a line: Cytotoxicity against human CAL51 at 0.0003 to 100 uM after 48 hrs by ATPlite assay. In kind it is cell-based. The following applies: cal-51, 48 h.
In the next data set the test system is HL-60. The experiment in a line: Cytotoxicity against human HL60 cells at 0.0003 to 100 uM after 48 hrs by ATPlite assay. In kind it is cell-based. The conditions noted are these: hl-60, 48 h.
Another data set concerns BJ. The experiment in a line: Cytotoxicity against human BJ cells at 0.0003 to 100 uM after 48 hrs by ATPlite assay. In kind it is cell-based.
A further data set deals with HepG2. The experiment in a line: Cytotoxicity against human HepG2 cells at 0.0003 to 100 uM after 48 hrs by ATPlite assay. In kind it is cell-based. The conditions noted are these: hepg2, 48 h.
In another data set the test system is K562. The experiment in a line: Cytotoxicity against human K562 cells at 0.0003 to 100 uM after 48 hrs by ATPlite assay. In kind it is cell-based. The conditions noted are these: k562, 48 h.
The subject of the next data set is Liver. The experiment in a line: Antioxidant activity against tert-butyl hydroperoxide-induced lipoperoxidation in rat liver microsomal membranes incubated for 60 mins by TBARS assay. The following applies: 1 h. In kind it is functional, cell membranes, Microsomal Membrane.
A short description of data set [1]: Partition coefficient, logP of the compound in octan-1-ol and phosphate buffer at pH 7.4 at 25 degC after 2 hrs by UV-vis spectrometer. In kind it is physicochemical. The conditions noted are these: octan-1-ol/phosphate buffer.
The subject of another data set is PC-3. The experiment in a line: Cytotoxicity against human PC3 cells at 0.0003 to 100 uM after 48 hrs by ATPlite assay. In kind it is cell-based. The conditions noted are these: pc-3, 48 h.
Another data set concerns MCF7. Kind of data set: Cytotoxicity against human MCF7 cells at 0.0003 to 100 uM after 48 hrs by ATPlite assay. In kind it is cell-based. The conditions noted are these: mcf7, 48 h.
Data set [2] in a line: Antioxidant activity assessed as DPPH radical scavenging activity after 30 mins. In kind it is functional.
The next data set relates to MDA-MB-231. Kind of data set: Cytotoxicity against human MDA-MB-231 cells at 0.0003 to 100 uM after 48 hrs by ATPlite assay. In kind it is cell-based. The following applies: mda-mb-231, 48 h.
Data set [3] in a line: Antioxidant activity assessed as trolox equivalent of ABTS radical scavenging activity at 100 uM incubated for >= 5 mins. In kind it is functional.
Data set [4] in a line: Antiradical activity assessed as gallic acid equivalents of Foline-Ciocalteu reagent reducing capacity at 1 mM preincubated for 5 mins followed by Na2CO3 addition measured after 90 mins.
Data set [5] can be described thus: Cytotoxicity against human primary prostate mesenchymal cells at 0.0003 to 100 uM after 48 hrs by ATPlite assay. In kind it is cell-based. The conditions noted are these: primary prostate mesenchymal cell.

In the case of `COc1cc(-c2oc3c(O)cc(-c4oc5cc(O)cc(O)c5c(=O)c4O)cc3c2C)ccc1O`, the Activity result in the data set on TERT-RPE1, with CAL-51, in the data set on HL-60, with BJ, in the data set with HepG2 and in the data set with K562 was “Toxic” throughout. In addition, the Activity entry is “Toxic” in the data set on PC-3; “Toxic” in the data set with MCF7; “Toxic” with MDA-MB-231; 1.43 equiv in [3]; 2.13 equiv in [4]; “Toxic” in [5]. Further, the IC50 in the data set with Liver was found to be 6.43 µM; in data set [2], 3.56 µM. This compound had a logD at 2 h in data set [1] of -0.24.
As to `COc1cc([C@@H]2Oc3c(O)cc([C@@H]4CC(=O)c5c(O)cc(O)cc5O4)cc3[C@H]2CO)ccc1O`, the Activity result in the data set on TERT-RPE1, in the data set with CAL-51, with HL-60, with BJ, in the data set with HepG2 and with K562 was “Toxic” each time. For the same compound, the Activity entry in the data set with PC-3 was “Toxic”; in the data set on MCF7 it was “Toxic”; in the data set on MDA-MB-231, “Toxic”; in data set [3], 0.77 equiv; in data set [4], 1.24 equiv; in data set [5] it was “Toxic”. The figures for the IC50 (with Liver; in data set [2]) were 12.6 µM and 43 µM, respectively. This compound came in with a logD at 2 h in data set [1] of -0.37.
In the case of `COc1cc([C@@H]2Oc3c(O)cc(-c4oc5cc(O)cc(O)c5c(=O)c4O)cc3[C@H]2CO)ccc1O`, the Activity entry in the data set on TERT-RPE1, in the data set with CAL-51, with HL-60, in the data set on BJ, with HepG2 and in the data set with K562 was “Toxic” in each case. In addition, the Activity result with PC-3 was “Toxic”; with MCF7, “Toxic”; in the data set with MDA-MB-231 it was “Toxic”; in data set [3] it was 1.79 equiv; in data set [4], 3.06 equiv; in data set [5], “Toxic”. In addition, the IC50 in the data set on Liver is 5.45 µM; in data set [2], 4.88 µM. In [1], this compound gave a logD at 2 h of -1.01.
Consider `COc1cc(-c2oc3c(O)cc([C@H]4Oc5cc(O)cc(O)c5C(=O)[C@@H]4O)cc3c2C)ccc1O`, for which the Activity result in the data set with TERT-RPE1, with CAL-51, with HL-60, in the data set with BJ, in the data set with HepG2 and in the data set with K562 was “Toxic” each time. Also, the Activity entry is “Toxic” in the data set on PC-3; “Toxic” with MCF7; “Toxic” in the data set on MDA-MB-231; 0.99 equiv in data set [3]; 1.74 equiv in data set [4]; “Toxic” in data set [5]. For the same compound, the IC50 with Liver worked out at 4.12 µM; in data set [2] it was 17.9 µM. The logD at 2 h in data set [1] is -0.74.
Consider `COc1cc(C2Oc3cc([C@H]4Oc5cc(O)cc(O)c5C(=O)[C@@H]4O)ccc3OC2CO)ccc1O` (mixture of isomers) [SILIBININ], for which the figures for the IC50 (in the data set with Liver; in [2]) were 67 µM and 553 µM, respectively. Besides, the Activity in data set [3] was determined as 0.47 equiv; in [4], 0.92 equiv.
As to `CC[C@@]1(O)C(=O)OCc2c1cc1n(c2=O)Cc2cc3ccccc3nc2-1` [CAMPTOTHECIN], the Activity result with TERT-RPE1, in the data set on CAL-51, in the data set on HL-60, in the data set on BJ, in the data set on HepG2 and with K562 was “Toxic” in each case. The Activity result (in the data set with PC-3; in the data set with MCF7; in the data set on MDA-MB-231; in data set [5]) was “Toxic” each time.
For the compound `COc1cc(C2Oc3cc(-c4oc5cc(O)cc(O)c5c(=O)c4O)ccc3OC2CO)ccc1O` (stereo not drawn) [DEHYDROSILYLBIN], the Activity entry in the data set with TERT-RPE1, with CAL-51, in the data set on HL-60, in the data set on BJ, with HepG2 and in the data set on K562 was “Toxic” each time. Moreover, the Activity entry in the data set with PC-3 was “Toxic”; in the data set on MCF7 it was “Toxic”; with MDA-MB-231, “Toxic”; in data set [3], 0.56 equiv; in data set [4], 1.29 equiv; in data set [5], “Toxic”. Moreover, the values for the IC50 (with Liver; in data set [2]) were 13 µM and 9.32 µM, respectively.
For `COc1cc([C@@H]2Oc3c(O)ccc([C@H]4Oc5cc(O)cc(O)c5C(=O)[C@@H]4O)c3[C@H]2CO)ccc1O` [ISOSILYCHRISTIN], the Activity result with TERT-RPE1, in the data set on CAL-51, in the data set with HL-60, in the data set with BJ, in the data set on HepG2 and in the data set on K562 was “Non-Toxic” throughout. Moreover, the Activity result with PC-3 was “Non-Toxic”; in the data set with MCF7, “Non-Toxic”; in the data set on MDA-MB-231, “Non-Toxic”; in data set [3], 0.65 equiv; in [4] it was 1.74 equiv; in [5], “Non-Toxic”. Besides, the IC50 came out at 36.7 µM with Liver and 53.1 µM in [2]. The compound further yielded a logD at 2 h in [1] of -0.47.
For `COc1cc(C2Oc3c(O)cc([C@H]4Oc5cc(O)cc(O)c5C(=O)[C@@H]4O)cc3C2CO)ccc1O` (stereo partly drawn) [SILICRISTIN], the Activity result in the data set on TERT-RPE1, in the data set on CAL-51, in the data set on HL-60, in the data set on BJ, with HepG2 and in the data set with K562 was “Non-Toxic” each time. The Activity entry is “Non-Toxic” in the data set with PC-3; “Non-Toxic” in the data set with MCF7; “Non-Toxic” with MDA-MB-231; 1.09 equiv in data set [3]; 1.49 equiv in data set [4]; “Non-Toxic” in data set [5]. The IC50 was 10.3 µM in the data set on Liver and 19 µM in data set [2]. The compound also showed a pH-dependent lipophilicity (logD) at 2 h in data set [1] of -0.39.
Turning to `COc1cc([C@H]2Oc3cc([C@H]4Oc5cc(O)cc(O)c5C(=O)[C@@H]4O)ccc3O[C@@H]2CO)ccc1O` [SILYBIN A], the Activity result in the data set with TERT-RPE1, in the data set with CAL-51, in the data set on HL-60, in the data set on BJ, in the data set with HepG2 and in the data set with K562 was “Toxic” in each case. Also, the Activity result (in the data set with PC-3; in the data set on MCF7; with MDA-MB-231; in data set [5]) was “Toxic” throughout.
As for `COc1cc([C@@H]2Oc3cc([C@H]4Oc5cc(O)cc(O)c5C(=O)[C@@H]4O)ccc3O[C@H]2CO)ccc1O` [SILYBIN B], the Activity result in the data set with TERT-RPE1, in the data set with CAL-51, with HL-60, in the data set on BJ, in the data set on HepG2 and in the data set on K562 was “Toxic” throughout. In addition, the Activity result (in the data set with PC-3; with MCF7; in the data set on MDA-MB-231; in data set [5]) was “Toxic” each time.

What is called IC50 is the concentration that gives 50% inhibition. What is called logD is lipophilicity at a set pH, counting ionised and neutral species. A higher logD goes with higher lipophilicity.
